According to PubChem BioAssay AID1259407 (Chemical Carcinogenesis Research Information System (CCRIS), 2018):
The source made the active and inactive calls. How the calls were made is not given here.

Test system: CCRIS mutagenicity, Ames/micronucleus/aberration tests
Assay: CCRIS mutagenicity studies
[1] = Test System: AMES SALMONELLA TYPHIMURIUM, Strain/Indicator: TA98, Metabolic Activation: HAMSTER, LIVER, S-9, AROCLOR 1254 (10%), Method: PREINCUBATION
[2] = Test System: AMES SALMONELLA TYPHIMURIUM, Strain/Indicator: TA98, Metabolic Activation: NONE, Method: PREINCUBATION
[3] = Test System: AMES SALMONELLA TYPHIMURIUM, Strain/Indicator: TA98, Metabolic Activation: RAT, LIVER, S-9, AROCLOR 1254 (10%), Method: PREINCUBATION
[4] = Test System: AMES SALMONELLA TYPHIMURIUM, Strain/Indicator: TA100, Metabolic Activation: HAMSTER, LIVER, S-9, AROCLOR 1254 (10%), Method: PREINCUBATION
[5] = Test System: AMES SALMONELLA TYPHIMURIUM, Strain/Indicator: TA100, Metabolic Activation: NONE, Method: PREINCUBATION
[6] = Test System: AMES SALMONELLA TYPHIMURIUM, Strain/Indicator: TA100, Metabolic Activation: RAT, LIVER, S-9, AROCLOR 1254 (10%), Method: PREINCUBATION
[7] = Test System: AMES SALMONELLA TYPHIMURIUM, Strain/Indicator: TA1535, Metabolic Activation: HAMSTER, LIVER, S-9, AROCLOR 1254 (10%), Method: PREINCUBATION
[8] = Test System: AMES SALMONELLA TYPHIMURIUM, Strain/Indicator: TA1535, Metabolic Activation: NONE, Method: PREINCUBATION
[9] = Test System: AMES SALMONELLA TYPHIMURIUM, Strain/Indicator: TA1535, Metabolic Activation: RAT, LIVER, S-9, AROCLOR 1254 (10%), Method: PREINCUBATION
[10] = Test System: AMES SALMONELLA TYPHIMURIUM, Strain/Indicator: TA1537, Metabolic Activation: HAMSTER, LIVER, S-9, AROCLOR 1254 (10%), Method: PREINCUBATION
[11] = Test System: AMES SALMONELLA TYPHIMURIUM, Strain/Indicator: TA1537, Metabolic Activation: NONE, Method: PREINCUBATION
[12] = Test System: AMES SALMONELLA TYPHIMURIUM, Strain/Indicator: TA1537, Metabolic Activation: RAT, LIVER, S-9, AROCLOR 1254 (10%), Method: PREINCUBATION
[13] = Test System: AMES SALMONELLA TYPHIMURIUM, Strain/Indicator: TA98, Metabolic Activation: RAT, LIVER, S-9, PCB, Method: PREINCUBATION
[14] = Test System: AMES SALMONELLA TYPHIMURIUM, Strain/Indicator: TA98, Metabolic Activation: NONE, Method: STANDARD PLATE
[15] = Test System: AMES SALMONELLA TYPHIMURIUM, Strain/Indicator: TA100, Metabolic Activation: NONE, Method: STANDARD PLATE
[16] = Test System: AMES SALMONELLA TYPHIMURIUM, Strain/Indicator: TA98, Metabolic Activation: RAT, LIVER, S-9, AROCLOR 1254, Method: STANDARD PLATE
[17] = Test System: AMES SALMONELLA TYPHIMURIUM, Strain/Indicator: TA100, Metabolic Activation: RAT, LIVER, S-9, AROCLOR 1254, Method: STANDARD PLATE

Measured: mutagenic call

O=[N+]([O-])c1cccc2c1-c1cccc3c([N+](=O)[O-])ccc-2c13
active: Test System: AMES SALMONELLA TYPHIMURIUM, Strain/Indicator: TA97, Metabolic Activation: NONE active; positive | Test System: AMES SALMONELLA TYPHIMURIUM, Strain/Indicator: TA98(1,8-DNP6), Metabolic Activation: NONE active; positive | Test System: AMES SALMONELLA TYPHIMURIUM, Strain/Indicator: TA98(NR), Metabolic Activation: NONE active; positive | Test System: AMES SALMONELLA TYPHIMURIUM, Strain/Indicator: TA98, Metabolic Activation: NONE active; positive | Test System: AMES SALMONELLA TYPHIMURIUM, Strain/Indicator: TA100, Metabolic Activation: NONE active; positive | Test System: AMES SALMONELLA TYPHIMURIUM, Strain/Indicator: TA1537, Metabolic Activation: NONE active; positive | Test System: AMES SALMONELLA TYPHIMURIUM, Strain/Indicator: TA1538, Metabolic Activation: NONE active; positive | Test System: AMES SALMONELLA TYPHIMURIUM, Strain/Indicator: TA1978, Metabolic Activation: NONE active; positive
inactive: Test System: AMES SALMONELLA TYPHIMURIUM, Strain/Indicator: TA1535, Metabolic Activation: NONE inactive; negative

Nc1nc(N)c2nc(-c3ccccc3)c(N)nc2n1
inactive: [1] inactive; negative | [2] inactive; negative | [3] inactive; negative | [4] inactive; negative | [5] inactive; negative | [6] inactive; negative | [7] inactive; negative | [8] inactive; negative | [9] inactive; negative | [10] inactive; negative | [11] inactive; negative | [12] inactive; negative

ClCc1c2ccccc2cc2ccccc12
active: [2] active; positive | [13] active; positive | [5] active; positive | Test System: AMES SALMONELLA TYPHIMURIUM, Strain/Indicator: TA100, Metabolic Activation: RAT, LIVER, S-9, PCB, Method: PREINCUBATION active; positive

Cc1c(Br)c(Br)c(Br)c(Br)c1Br
inactive: [1] inactive; negative | [2] inactive; negative | [3] inactive; negative | [4] inactive; negative | [5] inactive; negative | [6] inactive; negative | [7] inactive; negative | [8] inactive; negative | [9] inactive; negative | [10] inactive; negative | [11] inactive; negative | [12] inactive; negative

COc1cc(-c2nc(-c3ccccc3)c(-c3ccccc3)[nH]2)ccc1O
active: [15] active; positive
inactive: [14] inactive; negative | Test System: AMES SALMONELLA TYPHIMURIUM, Strain/Indicator: TA98, Metabolic Activation: RAT LIVER S-9, 3-METHYLCHOLANTHRENE, SODIUM PHENOBARBITAL, Method: STANDARD PLATE inactive; negative

ClC(Cl)c1ccccc1
active: [2] active; positive | Test System: AMES SALMONELLA TYPHIMURIUM, Strain/Indicator: TA98, Metabolic Activation: RAT, LIVER, S-9, AROCLOR 1254 (30%), Method: PREINCUBATION active; positive | Test System: AMES SALMONELLA TYPHIMURIUM, Strain/Indicator: TA100, Metabolic Activation: HAMSTER, LIVER, S-9, AROCLOR 1254 (30%), Method: PREINCUBATION active; positive | [5] active; positive | Test System: AMES SALMONELLA TYPHIMURIUM, Strain/Indicator: TA100, Metabolic Activation: RAT, LIVER, S-9, AROCLOR 1254 (30%), Method: PREINCUBATION active; positive | Test System: AMES SALMONELLA TYPHIMURIUM, Strain/Indicator: TA100, Metabolic Activation: RAT, LIVER, S-9, AROCLOR 1254, Method: PREINCUBATION active; positive
inactive: Test System: AMES SALMONELLA TYPHIMURIUM, Strain/Indicator: TA98, Metabolic Activation: HAMSTER, LIVER, S-9, AROCLOR 1254 (30%), Method: PREINCUBATION inactive; negative

CC(=O)N(O)c1ccc(C)cc1
inactive: [14] inactive; negative | [16] inactive; negative | [15] inactive; negative | [17] inactive; negative

NCCc1ccc(O)cc1
active: Test System: MOUSE LYMPHOMA, Strain/Indicator: L5178Y (TK+/TK-), Metabolic Activation: NONE, Method: SUSPENSION/PLATE active; positive | Test System: MOUSE LYMPHOMA, Strain/Indicator: L5178Y (TK+/TK-), Metabolic Activation: RAT, LIVER, S-9, AROCLOR 1254, Method: SUSPENSION/PLATE active; positive

O=c1ccc2cc3ccoc3cc2o1
inactive: [14] inactive; negative | [16] inactive; negative | Test System: AMES SALMONELLA TYPHIMURIUM, Strain/Indicator: TA98, Metabolic Activation: RAT, LIVER, S-9, PHENOBARBITAL, Method: STANDARD PLATE inactive; negative | [15] inactive; negative | [17] inactive; negative

COc1c(O)cc2c3c1-c1ccccc1C[C@H]3N(C)CC2
active: Test System: AMES SALMONELLA TYPHIMURIUM, Strain/Indicator: TA98, Metabolic Activation: RAT, LIVER, S-9, PHENOBARBITAL AND BETA-NAPHTHOFLAVONE, Method: PREINCUBATION active; positive | Test System: AMES SALMONELLA TYPHIMURIUM, Strain/Indicator: TA100, Metabolic Activation: RAT, LIVER, S-9, PHENOBARBITAL AND BETA-NAPHTHOFLAVONE, Method: PREINCUBATION active; positive

Cc1nc2c(c3[nH]c4ccccc4c13)C(=O)C=CC2=O
inactive: Test System: AMES SALMONELLA TYPHIMURIUM, Strain/Indicator: TA97, Metabolic Activation: NONE, Method: STANDARD PLATE inactive; negative | [15] inactive; negative | [17] inactive; negative | Test System: AMES SALMONELLA TYPHIMURIUM, Strain/Indicator: TA102, Metabolic Activation: NONE, Method: STANDARD PLATE inactive; negative | Test System: AMES SALMONELLA TYPHIMURIUM, Strain/Indicator: TA102, Metabolic Activation: RAT, LIVER, S-9, AROCLOR 1254, Method: STANDARD PLATE inactive; negative
active: Test System: AMES SALMONELLA TYPHIMURIUM, Strain/Indicator: TA97, Metabolic Activation: RAT, LIVER, S-9, AROCLOR 1254, Method: STANDARD PLATE active; positive | [14] active; positive | [16] active; positive

C[C@H](CCC(=O)O)[C@H]1CC[C@H]2[C@@H]3CC[C@@H]4C[C@@H](O)CC[C@]4(C)[C@H]3C[C@H](O)[C@]12C
inactive: Test System: AMES SALMONELLA TYPHIMURIUM, Strain/Indicator: TA98, Metabolic Activation: NONE, Method: FLUCTUATION TEST inactive; negative | [2] inactive; negative | [13] inactive; negative | Test System: AMES SALMONELLA TYPHIMURIUM, Strain/Indicator: TA100, Metabolic Activation: NONE, Method: FLUCTUATION TEST inactive; negative

c1ccc2cc3c(ccc4cccnc43)cc2c1
active: [16] active; positive
inactive: [14] inactive; negative | [15] inactive; negative | [17] inactive; negative
